Where “and” joins values, the source holds several entries; their conditions need not be identical. Equal values may be shown once.
Key:
Gallus gallus = species on record: Gallus gallus; assay: Antiangiogenic activity using CAM assay, activity expressed as % of eggs with avascular zone (125 nM).; assay type: functional
[1] = Antiproliferative effect against primary endothelial cells from pork aorta(ECPA); assay type: functional, cell-based, Sus scrofa, Endothelial cell
A-431 = assay: In vitro antiproliferative effect against A431 human epidermoid carcinoma cells; assay type: functional, cell-based
[2] = Compound was tested for antiproliferative effect against primary endothelial cells from pork aorta (ECPA) with first-phase IC50 of 0.1 nM; details: Sus scrofa, Endothelial cell
[3] = Compound was tested for antiproliferative effect against primary endothelial cells from pork aorta(ECPA); assay type: functional, cell-based; details: Sus scrofa, Endothelial cell
[4] = Compound was tested for antiproliferative effect against primary endothelial cells from pork aorta(ECPA) with first-phase IC50 of 0.001 nM; details: Sus scrofa, Endothelial cell
[5] = Compound was tested for antiproliferative effect against primary endothelial cells from pork aorta(ECPA) with first-phase IC50 of 0.1 nM; details: Sus scrofa, Endothelial cell

Structure (SMILES) | Eggs (Gallus gallus) | IC50 ([1]; Sus scrofa, Endothelial cell) [µM] | IC50 (A-431; Homo sapiens, A-431) [µM] | other results
CO[C@@H]1[C@H](OC(=O)NC(=O)CCl)CO[C@]2(COC(C)(C)O2)[C@@]1(O)C1OC1CCCc1ccccc1 (some centres not stated) | 79% and 76% | 68 | 19 | IC50 ([1]; endothelial cell): 90 µM; IC50 (A-431; a-431): 29 µM
CO[C@@H]1[C@H](OC(=O)NC(=O)c2ccccc2)CO[C@]2(COC(C)(C)O2)[C@@]1(O)C1(C)CO1 (some centres not stated) | 55% | 363 | > 500 | –
CO[C@@H]1C(=O)CC[C@]2(CO2)[C@@]1(O)[C@@]1(C)O[C@@H]1CC=C(C)C [OVALICIN] | – | – | 7.5 | IC50 [2]: 10 µM
CO[C@@H]1[C@H](OC(=O)NC(=O)CCl)CO[C@]2(COC(=O)O2)[C@]1(CCCCCc1ccccc1)OC(=O)NC(=O)CCl | 80% | 2.4 | 2 | –
CO[C@@H]1[C@H](OC(=O)NC(=O)CCl)CO[C@]2(COC(C)(C)O2)[C@@]1(OC)C1(C)CO1 (some centres not stated) | 16% | 175 | 39 | –
CNC(=O)O[C@@H]1CO[C@]2(COC(C)(C)O2)[C@@](O)(C2(C)CO2)[C@@H]1OC (some centres not stated) | 51% | 195 | > 500 | –
CO[C@@H]1[C@H](OC(=O)NC(=O)CCl)CO[C@]2(COC(C)(C)O2)[C@@]1(O)C1OC1CC(C)C (some centres not stated) | 75% and 68% | 124 | 44 | IC50 ([1]; endothelial cell): 178 µM
CCOC(=O)NC(=O)O[C@@H]1CO[C@]2(COC(C)(C)O2)[C@@](O)(C2OC2CC(C)C)[C@@H]1OC (some centres not stated) | 11% | 398 | 471 | –
CO[C@@H]1[C@H](OC(=O)NC(=O)CCl)CO[C@]2(COC(=O)O2)[C@@]1(O)CCCCCc1ccccc1 | 95% | – | 11 | IC50 [3]: 14 µM
CO[C@@H]1[C@H](OC(=O)NC(=O)CCl)CO[C@]2(COC(C)(C)O2)[C@@]1(OC(=O)NC(=O)CCl)C1(C)CO1 (some centres not stated) | 62% | 122 | 38 | –
CO[C@@H]1[C@H](OC(=O)NC(=O)CCl)CO[C@]2(COC(C)(C)O2)[C@@]1(OC(=O)NC(=O)CCl)C(C)C | 95% | 23 | 5.6 | –
CO[C@@H]1[C@H](OC(=O)NCCCl)CO[C@]2(COC(C)(C)O2)[C@@]1(O)C1(C)CO1 (some centres not stated) | 10% | 278 | > 500 | –
CO[C@@H]1[C@H](OC(=O)NC(=O)CCl)CO[C@]2(COC(C)(C)O2)[C@@]1(OC(=O)NC(=O)CCl)C1OC1CCCc1ccccc1 (some centres not stated) | 63% | 16 | 3.7 | –
CO[C@@H]1[C@H](OC(=O)NC(=O)CCl)CC[C@]2(CO2)[C@H]1[C@@]1(C)O[C@@H]1CC=C(C)C [O-CHLOROACETYLCARBAMOYLFUMAGILLOL] | 85% | – | 5.3 | IC50 [4]: 12 µM
CO[C@@H]1C(=O)CO[C@]2(COC(C)(C)O2)[C@@]1(O)C1(C)CO1 (some centres not stated) | 48% | 119 | > 500 | –
CO[C@@H]1[C@H](OC(=O)/C=C/C=C/C=C/C=C/C(=O)O)CC[C@]2(CO2)[C@H]1[C@@]1(C)O[C@@H]1CC=C(C)C [FUMAGILLIN] | 80% | – | 48 | IC50 [5]: 100 µM
CO[C@@H]1[C@H](OC(=O)NC(=O)CCl)CO[C@]2(COC(C)(C)O2)[C@]1(CCCCCc1ccccc1)OC(=O)NC(=O)CCl | 88% | 0.8 | 1.2 | –
CO[C@@H]1[C@H](OC(=O)NC(=O)CCl)CO[C@]2(COC(C)(C)O2)[C@@]1(O)C1(C)CO1 (some centres not stated) | 84% | 57 | 84 | –
CCOC(=O)CNC(=O)O[C@@H]1CO[C@]2(COC(C)(C)O2)[C@@](O)(C2OC2CC(C)C)[C@@H]1OC (some centres not stated) | 21% | 343 | 442 | –
C=C(C)[C@@]1(O)[C@H](OC)[C@H](OC)CO[C@]12CO2 | 32% | > 500 | > 500 | –
